The results in this text go back to US5990295A (priority 1998, dated 1999).

The test system of the assay is ω-conotoxin GVIA binding site on brain membrane preparations. Details: species or system frogs, chicks and rats.

Consider ω-conotoxin GVIA, for which the “displacement of 125I-GVIA” value is “approximately 90%” and the “displacement of 125I-GVIA label” value is given as “approximately 98%”.
